Like-named read-outs stand apart in the source and are kept apart here.
Experiments:
Human recombinant ECE-1 = target: T1, Human recombinant ECE-1 (Homo sapiens, UniProt P42892); experiment: Endothelin converting enzyme-1 (ECE-1) enzyme assay; format: biochemical; settings: for inhibition at 10 µM: read-out: % Inhibition at 10 μM
T1 construct: host or cells: murine myeloma NS0 cells
T1 sequence (P42892 1-770): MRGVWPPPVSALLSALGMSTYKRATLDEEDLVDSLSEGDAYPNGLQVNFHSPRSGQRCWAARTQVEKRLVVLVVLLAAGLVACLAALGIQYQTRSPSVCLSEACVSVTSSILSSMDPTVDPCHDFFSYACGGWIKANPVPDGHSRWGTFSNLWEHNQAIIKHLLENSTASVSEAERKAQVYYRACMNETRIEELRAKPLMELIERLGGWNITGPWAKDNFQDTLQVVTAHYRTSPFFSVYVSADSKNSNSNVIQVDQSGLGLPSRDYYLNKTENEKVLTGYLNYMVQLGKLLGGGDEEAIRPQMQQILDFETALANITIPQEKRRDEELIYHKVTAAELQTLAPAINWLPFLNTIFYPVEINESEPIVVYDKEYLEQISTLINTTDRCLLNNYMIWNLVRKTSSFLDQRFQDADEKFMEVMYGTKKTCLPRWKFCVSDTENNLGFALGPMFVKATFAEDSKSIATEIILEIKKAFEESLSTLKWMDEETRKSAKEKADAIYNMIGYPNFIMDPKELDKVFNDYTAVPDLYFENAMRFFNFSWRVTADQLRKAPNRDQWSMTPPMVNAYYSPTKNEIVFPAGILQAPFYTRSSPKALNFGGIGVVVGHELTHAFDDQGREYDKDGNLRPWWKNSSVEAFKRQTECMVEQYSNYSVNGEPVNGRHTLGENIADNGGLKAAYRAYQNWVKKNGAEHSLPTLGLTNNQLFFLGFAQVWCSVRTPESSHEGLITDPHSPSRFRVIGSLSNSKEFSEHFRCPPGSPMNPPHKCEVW
Protocol: (§1) 2. Enzyme Assays for the Peptidase Endothelin Converting Enzyme-1 (ECE-1) and for the Cysteine Protease Cathepsin S (CatS)
(§2) The assays were performed according to provider's (Ricerca Biosciences, LLC) protocols which in turn are based on literature procedures (for ECE-1 cf.: O. Valdenaire et al., Eur. J. Biochem. 1999, 264, 341-349; F. D. Russell, A. P. Davenport, Circ. Res. 1999, 84, 891-896; and for CatS: G P Shi et al., J. Biol. Chem. 1992, 267, 7258-62; D Brömme et al., J. Biol. Chem. 1993 268, 4832-4838.).
Human recombinant ECE-1 expressed in murine myeloma cells NS0 is used. Test compound and/or vehicle is preincubated with 20 ng/ml enzyme in modified MES buffer pH 6.0 for 15 minutes at 25° C. The reaction is initiated by addition of […] Mca-[…]Dnp) for another 60 minutes' incubation period. Determination of the amount of Mca-Arg-Pro-Pro-Gly-Phe-Ser-Ala formed is read […] at 320 nm/405 nm. Compounds are screened at […].
IC50 values were determined by a non-linear, least squares regression analysis using MathIQ™ (ID Business Solutions Ltd., UK). […] The Hill coefficient (nH), defining the slope of the competitive binding curve, was calculated using MathIQ™.

[1] = target: T2, Human recombinant cathepsin S (Homo sapiens, UniProt P25774); experiment: Cathepsin S (CatS) enzyme assay; format: biochemical; settings: for inhibition at 10 µM: 10 μM compound
T2 construct: host or cells: murine myeloma NS0 cells
T2 sequence (P25774 115-331): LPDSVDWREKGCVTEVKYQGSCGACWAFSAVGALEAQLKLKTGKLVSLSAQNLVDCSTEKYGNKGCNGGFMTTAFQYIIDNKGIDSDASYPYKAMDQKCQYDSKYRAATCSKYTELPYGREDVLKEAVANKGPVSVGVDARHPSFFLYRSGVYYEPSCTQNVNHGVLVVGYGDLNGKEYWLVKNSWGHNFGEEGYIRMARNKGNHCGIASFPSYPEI
Protocol: as §1, §2
Human recombinant cathepsin S expressed in a murine myeloma NS0 cells is used. Test compound and/or vehicle is preincubated with 0.1 μg/ml enzyme in modified acetate buffer pH 4.5 for 15 minutes at 25° C. The reaction is initiated by addition of […] Z-Leu-Arg-AMC for another 30 minutes' incubation period. Determination of the amount of AMC formed is read spectrofluorimetrically at 360 nm/465 nm. […]
IC50 values were determined by a non-linear, least squares regression analysis using MathIQ™ (ID Business Solutions Ltd., UK). Inhibition constants K were calculated according to the equation of Cheng and Prusoff (Y. Cheng, W. H. Prusoff, Biochem. Pharmacol. 1973, 22, 3099-3108) using the observed IC50 of the tested compound, the concentration of radioligand employed in the assay, and the historical values for the KD of the ligand. The Hill coefficient (nH), defining the slope of the competitive binding curve, was calculated using MathIQ™.

[2] = target: T3, Bombesin receptor subtype 3 (BB3 receptor) (Homo sapiens, UniProt P32247); experiment: Ca2+ flux (FLIPR) assay, BB3 receptor, agonist/antagonist mode; format: cell-based; settings: agonist mode
T3 construct: expressed in transfected cells; host or cells: Ca2+ optimized hematopoietic cell lines (rat)
T3 sequence (P32247 1-399): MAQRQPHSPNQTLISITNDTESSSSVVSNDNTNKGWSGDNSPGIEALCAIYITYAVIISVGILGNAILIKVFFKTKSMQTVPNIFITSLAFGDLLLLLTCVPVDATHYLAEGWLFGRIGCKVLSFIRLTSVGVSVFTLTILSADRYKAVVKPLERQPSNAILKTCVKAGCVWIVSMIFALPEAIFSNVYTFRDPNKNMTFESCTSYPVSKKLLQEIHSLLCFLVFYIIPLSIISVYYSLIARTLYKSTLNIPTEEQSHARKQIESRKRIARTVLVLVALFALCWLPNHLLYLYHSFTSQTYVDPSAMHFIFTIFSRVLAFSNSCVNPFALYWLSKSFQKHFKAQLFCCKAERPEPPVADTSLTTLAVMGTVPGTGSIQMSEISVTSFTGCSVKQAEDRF
Protocol: Biological and Pharmacological Methods 1. Ca^2+ Flux Assays for the GPCRs Oxytocin Receptor (OT Receptor), Thyrotropin-Releasing Hormone Receptor (TRH Receptor) and Bombesin Receptor Subtype 3 (BB3 Receptor)
Assays were performed on a FLIPR^TETRA fluorometric imaging plate reader (Molecular Devices) with ScreenWorks Version 2 (Molecular Devices) as device operating and data analysis software.
Dose dependent agonist and antagonist activities were determined. Percentage activation and percentage inhibition values were determined.
Percentage activation was determined upon initial addition of the sample compounds followed by 10 minutes' incubation at 25° C. Following compound incubation, reference agonists were added at EC80 to determine percentage inhibition.
Reference agonists were purchased from reputable commercial vendors and prepared according to each ligand's specifications. All handling of ligands were done to ensure proper control throughout the experiments.
Example compounds were weighed on a Microbalance (Mettler MX5) and dissolved in 100% DMSO to a final concentration of 2.5 mM and subsequently diluted into the assay buffer.
The assay buffer was a supplemented HBSS (Hank's Balanced Salt Solution). HBSS was supplemented with 20 mM HEPES (4-(2-hydroxyethyl)-piperazin-1-ethansulfonic acid) and 2.5 mM Probenecid (Sigma P8761).
GPCR assays were performed using Ca^2+ optimized hematopoietic cell lines (rat) with cultures never exceeding 90% confluency. Cells were harvested and seeded (from cultures at less than 90% confluency) at 50000 cells/well for a 96-well plate (12500 cells/well for 384). After seeding, the assay plates were incubated for 45 minutes at room temperature. After room temperature incubation, the assay plates were incubated at 37° C. 5% CO2 for 24 hours prior to assaying.
All GPCR assays were performed using Fluo-8 Ca^2+ dye.
Ca^2+ dye was prepared at 1× dye concentration in GPCR assay buffer. After 24 hours of incubation, cells were washed with GPCR assay buffer, and then Ca^2+-dye (100 μL/well) was added.
The plates were incubated for 90 minutes at 30° C. 5% CO2 prior to FLIPR assay.
Compound plates were prepared to add 50 μL/well during the agonist assay mode. During the FLIPR assay, 50 μL/well from the compound plate was diluted 3-fold into the existing 100 μL/well from the dye loading step. Therefore all compounds were prepared as 3× the final concentration desired in the assay.
After completion of the first single addition assay run, assay plate was removed from the FLIPR Tetra and placed at 25° C. for 7 minutes before antagonist assay.
Using the EC80 values determined during the agonist assay, all pre-incubated sample compound and reference antagonist (if applicable) wells were stimulated at the EC80 of the reference agonist. As reference ligands for these assays their obvious natural ligands oxytocin (OT), thyrotropin-releasing hormone (TRH) and bombesin (6-14) [BN(6-14)] were used.
After the addition of the reference agonist fluorescence was monitored for 180 sec using FLIPR Tetra.
From the FLIPR data, with negative control correction enabled, the maximum statistic for each well was exported and percentage activation relative to Emax control was calculated.

[3] = target: T2, Human recombinant cathepsin S; settings: reference compound of the CatS assay; 0.1 μg/ml enzyme, acetate buffer pH 4.5, 25° C.; cited from earlier work

Agonist activity % activation at 12.5 μM [2] [%]	SMILES	IC50 (Human recombinant ECE-1) [µM]	inhibition at 10 µM (Human recombinant ECE-1) [%]	IC50 [1] [µM]	inhibition at 10 µM [1] [%]	further results
	CN1CCC[C@H](NC(=O)Cc2ccccc2)C(=O)N2C[C@@H](NC(=O)Cc3ccc4ccccc4c3)C[C@H]2COc2ccccc2-c2cccc(c2)C1=O [Ex. 25, N-[(10S,12S,16S)-20-methyl-15,21-dioxo-16-[(2-phenylacetyl)amino]-8-oxa-14,20-diazatetracyclo[20.3.1.0^2,7.0^10,14]hexacosa-1(26),2,4,6,22,24-hexaen-12-yl]-2-(2-naphthyl)acetamide]	4.28	97	3.18	87	
84	CN1CC[C@H](NC(=O)Cc2ccc3ccccc3c2)C(=O)N2C[C@@H](O)C[C@H]2COc2ccsc2-c2cc(n(C)n2)C1=O [Ex. 265, N-[(9S,11S,15S)-11-hydroxy-18,21-dimethyl-14,19-dioxo-7-oxa-3-thia-13,18,21,22-tetraazatetracyclo[18.2.1.0^2,6.0^9,13]tricosa-1(22),2(6),4,20(23)-tetraen-15-yl]-2-(2-naphthyl)acetamide]					EC50 [2]: 0.63 µM
	CC(C)C[C@H](NC(=O)[C@H]1O[C@@H]1C(=O)O)C(=O)NCCCCN=C(N)N [E-64]					IC50 [3]: 0.0014 µM
	CN1CCC[C@H](NC(=O)c2ccccc2)C(=O)N2C[C@@H](NC(=O)Cc3ccc4ccccc4c3)C[C@H]2COc2ccccc2-c2cccc(c2)C1=O [Ex. 26, N-[(10S,12S,16S)-20-methyl-12-{[2-(2-naphthyl)acetyl]amino}-15,21-dioxo-8-oxa-14,20-diazatetracyclo[20.3.1.0^2,7.0^10,14]hexacosa-1(26),2,4,6,22,24-hexaen-16-yl]benzamide]	4.07	98	3.83	81	
60	CO[C@H]1C[C@H]2COc3ccsc3-c3cc(n(C)n3)C(=O)N(C)CC[C@H](NC(=O)Cc3ccc4ccccc4c3)C(=O)N2C1 [Ex. 275, N-[(9S,11S,15S)-11-methoxy-18,21-dimethyl-14,19-dioxo-7-oxa-3-thia-13,18,21,22-tetraazatetracyclo[18.2.1.0^2,6.0^9,13]tricosa-1(22),2(6),4,20(23)-tetraen-15-yl]-2-(2-naphthyl)acetamide]					EC50 [2]: 0.78 µM
	CN1CCC[C@H](NC(=O)OCc2ccccc2)C(=O)N2C[C@@H](NC(=O)Cc3ccc4ccccc4c3)C[C@H]2COc2ccccc2-c2cccc(c2)C1=O [Ex. 18, benzyl N-[(10S,12S,16S)-20-methyl-12-{[2-(2-naphthyl)acetyl]amino}-15,21-dioxo-8-oxa-14,20-diazatetracyclo[20.3.1.0^2,7.0^10,14]hexacosa-1(26),2,4,6,22,24-hexaen-16-yl]carbamate]	3.01	98	3.65	82	
39	CN1CC[C@H](NCCc2ccc3ccccc3c2)C(=O)N2C[C@@H](O)C[C@H]2COc2ccsc2-c2cc(n(C)n2)C1=O [Ex. 282, (9S,11S,15S)-11-hydroxy-18,21-dimethyl-15-{[2-(2-naphthyl)ethyl]amino}-7-oxa-3-thia-13,18,21,22-tetraazatetracyclo[18.2.1.0^2,6.0^9,13]tricosa-1(22),2(6),4,20(23)-tetraene-14,19-dione]					
61	CN1CC[C@H](NC(=O)Cc2cccc3ccccc23)C(=O)N2C[C@@H](O)C[C@H]2COc2ccsc2-c2cc(n(C)n2)C1=O [Ex. 267, N-[(9S,11S,15S)-11-hydroxy-18,21-dimethyl-14,19-dioxo-7-oxa-3-thia-13,18,21,22-tetraazatetracyclo[18.2.1.0^2,6.0^9,13]tricosa-1(22),2(6),4,20(23)-tetraen-15-yl]-2-(1-naphthyl)acetamide]					
